Data from patent publication US8623911B2, “Boron-containing small molecules as anti-protozoal agent” (Anacor Pharmaceuticals, Inc., priority 2010, dated 2014).

Experiments:
[1] = test system: TREU 667 strain of T. b. brucei; assay: Chronic CNS Model [Murine Stage 2 HAT]; type: in vivo; settings: treated on Day 21 (10 mg/kg), negative control
Procedure: Mice were infected with 10,000 parasites of the TREU 667 strain of T. b. brucei. Twenty one days post-infection mice were treated with a dose of between 6 and 100 mg/kg of a compound of the invention, either BID or QD for 7 days intraperitoneally (IP) or orally (PO). Positive control mice were treated with Diminazene (10 mg/kg, IP) on Day 4 post-infection. Negative control mice were treated with Diminazene (10 mg/kg, PO) on Day 21. Since Diminazene is not able to penetrate the CNS, mice treated at Day 21 are not able to cure the infection. Starting 1 week after treatment, mice were checked for parasitemia by microscopic examination of smears prepared from tail vein blood. Parasite positive animals were immediately removed from the cages and euthanized. Animals were considered to be cured of a CNS infection if they were aparasitemic for at least 180 days after the end of the treatment period.

[2] = test system: P-gp (human MDR1); assay: in vitro; type: in vitro ADME, canine; settings: dog, MDCK-MDR1; 3 μM test compound; without GF120918; read-out: MDCK-MCR1 Papp
Procedure: (§1) MDCK-MDR1 cells (Madin-Darby canine kidney cells transfected with the human MDR1 gene) (Dr. Piet Borst, NKI-AVL, Amsterdam, The Netherlands) were seeded at 300,000 cells per well onto microporous, polycarbonate membranes in 12 well Costar Transwell® plates (Corning, Corning, N.Y.). The medium was removed and replaced with fresh cell culture medium approximately 24 hours after plating. Cells attained confluency and were ready for use in the transport assay after 72 hours of incubation.
(§2) A stock solution of each compound was prepared in DMSO at a concentration of 10 mg/mL. Stock solutions were further diluted in DMSO to a concentration of 1 mM for use in the assay. The final assay concentration of test compound in each incubation mixture was 3 μM and the final concentration of DMSO was 0.3%.
(§3) Cell cultures were pre-incubated with Transport Medium (TM), consisting of Hanks Balanced Salt Solution (HBSS), 25 mM glucose, and 25 mM HEPES, with and without the known P-gp inhibitor GF120918 (2 μM final assay concentration), for 30-60 minutes prior to the addition of test and control compounds. Following the pre-incubation period, transepithelial electrical resistance (TEER) measurements were taken on each insert to insure the integrity of the monolayer. The range for TEER values was 45-85Ω·cm^2. Transport medium was removed. Fresh transport media (1.5 mL) with or without GF120918 was added to the basolateral chambers. Solutions of the test compound were diluted into TM and added to the appropriate wells in triplicate (400 μL/well) at a final concentration of 3 μM with and without GF120918. The final concentration of DMSO was 0.3%. Control compounds were tested in triplicate at a final concentration of 3 μM. Cell monolayers were incubated with shaking (160 rpm) at 37° C. with 5% CO2 in a humidified incubator for one hour. Following the incubation, all plates were removed from the incubator. Inserts were removed from the plates and TEER measurements were again taken on each insert prior to removing samples for analysis to ensure no degradation of the tight junctions during the assay. An aliquot was taken from each receiver and diluted 1:3 with organic solvent (methanol) to assess transport of each compound across the monolayer. An aliquot was taken from each donor and diluted 1:2 with organic solvent (methanol) and then again 1:50 with matrix (50% methanol/50% TM) to assess mass balance within the study. All samples were assayed for test compound concentrations by LC-MS/MS using electrospray ionization.

[3] = test system: MDCK-MDR1 cells; assay: in vitro; type: in vitro ADME, canine; settings: 3 μM test compound
Procedure: as §1, §2, §3

[4] = test system: LAB 110 Eatro strain of T. b. brucei; assay: Acute Murine Model A [Murine Stage 1 HAT]; type: in vivo; settings: for Mean Survival Days: mice infected with T. b. brucei, 10 mg/kg, BID, orally, 4 days
Procedure: Female Swiss Webster mice were inoculated with 250,000 parasites of the LAB 110 Eatro strain of T. b. brucei. 24 hrs post-infection, treatment was initiated by administration of a compound of the invention BID for 4 days with 20 mg/kg/dose (40 mg/kg/day) intraperitoneally (IP) or orally (PO), 5 mg/kg BID or 10 mg/kg BID orally (PO). 3 mice per group were treated with a particular compound of the invention. Mice were checked for parasitemia weekly by microscopic examination of smears prepared from tail vein blood. Animals remaining parasite free for more than 30 days beyond the end of the treatment period were considered cured. Control untreated animals typically succumbed to the infection within 4-5 days following i.p. inoculation with parasites. Mice were monitored for 30 days for survival. Pentamidine at 2 mg/kg IP was used as the positive control. After 10 days, 0% of the untreated mice were parasite free. After 10 days, 67% of mice treated PO with 10 mg/kg BID of N-(1-Hydroxy-3,4-dihydro-1H-benzo[c][1,2]oxaborinin-7-yl)-4-methoxy-benzamide (M19) were parasite free. After 30 days, 100% of mice treated PO with 10 mg/kg BID of 4-fluoro-N-(1-hydroxy-3,4-dihydro-1H-benzo[c][1,2]oxaborinin-7-yl)-2-trifluoromethyl-benzamide (M1) were parasite free.

| Structure (SMILES) | day by which all animals relapsed to exhibit blood parasitemia [1] [days] | Papp at 1 h, 3 µM [2] [×10⁻⁶ cm/s] | MDCK-MCR1 AQ [3] | Mean Survival Days [4] [days] | mice parasite free after 10 days ([4]; female Swiss Webster mice, PO 10 mg/kg BID for 4 days, after 10 days) [%] |
| --- | --- | --- | --- | --- | --- |
| N=C(N)c1ccc(/N=N/Nc2ccc(C(=N)N)cc2)cc1 [Diminazene, reference compound] | ≤ 56 |  |  |  |  |
| O=C(Nc1ccc2c(c1)B(O)OCC2)c1ccccc1Cl [M5, 2-Chloro-N-(1-hydroxy-3,4-dihydro-1H-benzo[c][1,2]oxaborinin-7-yl)-benzamide] |  | 70.7 | 0.1 | 7 |  |
| COc1ccc(C(=O)Nc2ccc3c(c2)B(O)OCC3)cc1 [M19, N-(1-Hydroxy-3,4-dihydro-1H-benzo[c][1,2]oxaborinin-7-yl)-4-methoxybenzamide] |  |  |  | 9 | 67 |
| CC1(C)COB(O)c2cc(NC(=O)c3ccc(F)cc3C(F)(F)F)ccc21 [M51] |  |  |  | 3.6 |  |
| O=C(Nc1ccc2c(c1)B(O)OCC2)c1ccccc1C(F)(F)F [M15, N-(1-Hydroxy-3,4-dihydro-1H-benzo[c][1,2]oxaborinin-7-yl)-2-trifluoromethyl-benzamide] |  |  |  | >30 |  |
| COC(=O)c1ccc(C(=O)Nc2ccc3c(c2)B(O)OCC3)cc1 [M40, N-(1-Hydroxy-3,4-dihydro-1H-benzo[c][1,2]oxaborinin-7-yl)-terephthalamic acid methyl ester] |  |  |  | 4 |  |
| O=C(Nc1ccc2c(c1)B(O)OCC2)c1ccccc1Br [M8, 2-Bromo-N-(1-hydroxy-3,4-dihydro-1H-benzo[c][1,2]oxaborinin-7-yl)-benzamide] |  |  |  | 5.6 |  |
| O=C(Nc1ccc2c(c1)B(O)OCC2)c1ccc(Cl)cc1F [M29, 4-Chloro-2-fluoro-N-(1-hydroxy-3,4-dihydro-1H-benzo[c][1,2]oxaborinin-7-yl)-benzamide] |  | 80.4 | −0.04 | >30 |  |
| CC(C)c1ccc(S(=O)(=O)Nc2ccc3c(c2)B(O)OCC3)cc1 [M47, N-(1-Hydroxy-3,4-dihydro-1H-benzo[c][1,2]oxaborinin-7-yl)-4-isopropyl-benzenesulfonamide] |  | 64.8 | 0.04 | 9 |  |
| O=C(Nc1ccc2c(c1)B(O)OCC2)c1ccc(Cl)cc1Cl [M27, 2,4-Dichloro-N-(1-hydroxy-3,4-dihydro-1H-benzo[c][1,2]oxaborinin-7-yl)-benzamide] |  | 85.1 | −0.03 | >30 |  |
| Cc1ccc(S(=O)(=O)Nc2ccc3c(c2)B(O)OCC3)cc1 [M46, N-(1-Hydroxy-3,4-dihydro-1H-benzo[c][1,2]oxaborinin-7-yl)-4-methylbenzenesulfonamide] |  | 77.1 | 0.05 | 5 |  |
| CCc1ccc(C(=O)Nc2ccc3c(c2)B(O)OCC3)cc1 [M12, 4-Ethyl-N-(1-hydroxy-3,4-dihydro-1H-benzo[c][1,2]oxaborinin-7-yl)-benzamide] |  | 80.3 | −0.04 | 8 |  |
| CC(C)(C)c1ccc(C(=O)Nc2ccc3c(c2)B(O)OCC3)cc1 [M14, 4-tert-Butyl-N-(1-hydroxy-3,4-dihydro-1H-benzo[c][1,2]oxaborinin-7-yl)-benzamide] |  |  |  | 3.6 |  |
| O=S(=O)(Nc1ccc2c(c1)B(O)OCC2)c1ccc(Cl)cc1 [M43, 4-Chloro-N-(1-hydroxy-3,4-dihydro-1H-benzo[c][1,2]oxaborinin-7-yl)-benzenesulfonamide] |  | 64.9 | 0.05 |  |  |
